This is an account of results in patent publication US7569586B2, “Compounds having β2 adrenergic receptor agonist and muscarinic receptor antagonist activity” (Theravance, Inc., priority 2004, dated 2009).

A value given as a limit tells only on which side of the number the result lay.

Usually Ki stands for the equilibrium dissociation constant of an inhibitor or competing ligand from its target. In general, EC50 refers to the concentration that produces a half-maximal response. Low readings indicate greater potency, high ones weaker potency.

The target in one assay is T1, hM3 muscarinic receptor (Homo sapiens, UniProt P20309).
T1 construct: expressed in transfected cells; host or cells: CHO cells (membranes)
In words: Radioligand binding assay for muscarinic receptors (Assay Test Procedure B). The conditions noted are these: CHO cell membranes, [3H]-NMS displacement; read-out: Ki value for the M3 muscarinic receptor. Here is the method:
CHO cell lines stably expressing cloned human hM1, hM2, hM3 and hM4 muscarinic receptor subtypes, respectively, were grown to near confluency in HAM's F-12 media supplemented with 10% FBS and 250 μg/mL Geneticin. The cells were grown in a 5% CO2, 37° C. incubator and lifted with 2 mM EDTA in dPBS. Cells were collected by 5 minute centrifugation at 650×g, and cell pellets were either stored frozen at −80° C. or membranes were prepared immediately for use. For membrane preparation, cell pellets were resuspended in lysis buffer and homogenized with a Polytron PT-2100 tissue disrupter (Kinematica AG; 20 seconds×2 bursts). Crude membranes were centrifuged at 40,000×g for 15 minutes at 4° C. The membrane pellet was then resuspended with re-suspension buffer and homogenized again with the Polytron tissue disrupter. The protein concentration of the membrane suspension was determined by the method described in Lowry et al., 1951, […], 193, 265. All membranes were stored frozen in aliquots at −80° C. or used immediately. Aliquots of prepared hM5 receptor membranes were purchased directly from Perkin Elmer and stored at −80° C. until use.
Radioligand binding assays for cloned human muscarinic receptors were performed in 96-well microtiter plates in a total assay volume of 100 μL. […] Filter plates were rinsed three times with wash buffer (10 mM HEPES) to remove unbound radioactivity. […] The plates were then counted in a PerkinElmer Topcount liquid scintillation counter (PerkinElmer Inc., Wellesley, Mass.). Binding data were analyzed by nonlinear regression analysis with the GraphPad Prism Software package (GraphPad Software, Inc., San Diego, Calif.) using the one-site competition model. Ki values for test compounds were calculated from observed IC50 values and the KD value of the radioligand using the Cheng-Prusoff equation (Cheng Y; Prusoff W H. (1973) Biochemical Pharmacology, 22(23):3099-108). […]

Assay [1] deals with T2, human β2 adrenergic receptor (Homo sapiens, UniProt P07550). In words: Whole-cell cAMP Flashplate assay with lung epithelial cell line BEAS-2B endogenously expressing human β2 adrenergic receptor (Assay Test Procedure E). The class given is cell-based. Conditions: BEAS-2B cells. Here is the method: For the determination of agonist potencies and efficacies (intrinsic activities) in a cell line expressing endogenous levels of the β2 adrenergic receptor, a human lung epithelial cell line (BEAS-2B) was used (ATCC CRL-9609, American Type Culture Collection, Manassas, Va.) (January B, et al., British Journal of Pharmacology, 1998, 123, 4, 701-11). Cells were grown to 75-90% confluency in complete, serum-free medium (LHC-9 MEDIUM containing Epinephrine and Retinoic Acid, cat # 181-500, Biosource International, Camarillo, Calif.). The day before the assay, medium was switched to LHC-8 (no epinephrine or retinoic acid, cat # 141-500, Biosource International, Camarillo, Calif.). cAMP assays were performed in a radioimmunoassay format using the Flashplate Adenylyl Cyclase Activation Assay System with [^125I]-cAMP (NEN SMP004, PerkinElmer Life Sciences Inc., Boston, Mass.), according to the manufacturers instructions. On the day of the assay, cells were rinsed with PBS, lifted by scraping with 5 mM EDTA in PBS, and counted. Cells were pelleted by centrifugation at 1,000 rpm and re-suspended in stimulation buffer pre-warmed to 37° C. at a final concentration of 600,000 cells/mL. Cells were used at a final concentration of 100,000 to 120,000 cells/well in this assay. […] Plates were sealed, incubated over night at 4° C. and counted the next morning in a Topcount scintillation counter (Packard BioScience Co., Meriden, Conn.). The amount of cAMP produced per mL of reaction was calculated based on the counts observed for samples and cAMP standards, as described in the manufacturer's user manual. Data were analyzed by nonlinear regression analysis with the GraphPad Prism Software package (GraphPad Software, Inc., San Diego, Calif.) using the 4-parameter model for sigmoidal dose-response.
if desired, test compound efficacity (% Eff) was calculated from the ratio of the observed Emax (TOP of the fitted curve) and the maximal response obtained for isoproterenol dose response curve and was expressed as % Eff relative to isoproterenol.

Assay [2] deals with T2, human β2 adrenergic receptor. In words: Radioligand binding assay for human β2 adrenergic receptor (Assay Test Procedure A). Set-up: expressed in transfected cells; host or cells: CHO-K1 cells. Conditions: CHO cell membranes, [3H]-dihydroalprenolol displacement. Here is the method:
Chinese hamster ovarian (CHO) cell lines stably expressing cloned human β1, β2 or β3 adrenergic receptors, respectively, were grown to near confluency in Hams F-12 media with 10% FBS in the presence of 500 μg/mL Geneticin. The cell monolayer was lifted with 2 mM EDTA in PBS. Cells were pelleted by centrifugation at 1,000 rpm, and cell pellets were either stored frozen at −80° C. or membranes were prepared immediately for use. For preparation of β1 and β2 receptor expressing membranes, cell pellets were re-suspended in lysis buffer (10 mM HEPES/HCl, 10 mM EDTA, pH 7.4 at 4° C.) and homogenized using a tight-fitting Dounce glass homogenizer (30 strokes) on ice. […] The protein concentration of the membrane suspension was determined by the methods described in Lowry et al., 1951, Journal of Biological Chemistry, 193, 265; and Bradford, Analytical Biochemistry, 1976, 72, 248-54. […]
Binding assays were performed in 96-well microtiter plates in a total assay volume of 100 μL with 10-15 μg of membrane protein containing the human β1, β2 or β3 adrenergic receptors in assay buffer (75 mM Tris/HCl pH 7.4 at 25° C., 12.5 mM MgCl2, 1 mM EDTA, 0.2% BSA). […] Non-specific binding was determined in the presence of 10 μM propranolol. […] Filter plates were washed three times with filtration buffer (75 mM Tris/HCl pH 7.4 at 4° C., 12.5 mM MgCl2, 1 mM EDTA) to remove unbound radioactivity. […]

Assay [3] has the same target. The assay is described as follows: Whole-cell cAMP Flashplate assay in CHO cell lines heterologously expressing human β2 adrenergic receptor (Assay Test Procedure C). Set-up: expressed in transfected cells; host or cells: CHO-K1 cells. The conditions noted are these: CHO-K1 cells. The class given is cell-based. Here is the method: cAMP assays were performed in a radioimmunoassay format using the Flashplate Adenylyl Cyclase Activation Assay System with [^125I]-cAMP (NEN SMP004, PerkinElmer Life Sciences Inc., Boston, Mass.), according to the manufacturers instructions. For the determination of P receptor agonist potency (EC50), CHO-K1 cell lines stably expressing cloned human β1, β2 or β3 adrenergic receptors were grown to near confluency in HAM's F-12 media supplemented with 10% FBS and Geneticin (250 μg/mL). Cells were rinsed with PBS and detached in dPBS (Dulbecco's Phosphate Buffered Saline, without CaCl2 and MgCl2) containing 2 mM EDTA or Trypsin-EDTA solution (0.05% trypsin/0.53 mM EDTA). After counting cells in Coulter cell counter, cells were pelleted by centrifugation at 1,000 rpm and re-suspended in stimulation buffer containing IBMX (PerkinElmer Kit) pre-warmed to room temperature to a concentration of 1.6×10^6 to 2.8×10^6 cells/mL. About 60,000 to 80,000 cells per well were used in this assay. Test compounds (10 mM in DMSO) were diluted into PBS containing 0.1% BSA in Beckman Biomek-2000 and tested at 11 different concentrations ranging from 100 μM to 1 pM. Reactions were incubated for 10 min at 37° C. and stopped by adding 100 μL of cold detection buffer containing [^125I]-cAMP (NEN SMP004, PerkinElmer Life Sciences, Boston, Mass.). The amount of cAMP produced (pmol/well) was calculated based on the counts observed for the samples and cAMP standards as described in the manufacturer's user manual. Data were analyzed by nonlinear regression analysis with the GraphPad Prism Software package (GraphPad Software, Inc., San Diego, Calif.) with the sigmoidal equation. The Cheng-Prusoff equation (Cheng Y, and Prusoff W H., Biochemical Pharmacology, 1973, 22, 23, 3099-108) was used to calculate the […].

T1 sequence (P20309 whole entry): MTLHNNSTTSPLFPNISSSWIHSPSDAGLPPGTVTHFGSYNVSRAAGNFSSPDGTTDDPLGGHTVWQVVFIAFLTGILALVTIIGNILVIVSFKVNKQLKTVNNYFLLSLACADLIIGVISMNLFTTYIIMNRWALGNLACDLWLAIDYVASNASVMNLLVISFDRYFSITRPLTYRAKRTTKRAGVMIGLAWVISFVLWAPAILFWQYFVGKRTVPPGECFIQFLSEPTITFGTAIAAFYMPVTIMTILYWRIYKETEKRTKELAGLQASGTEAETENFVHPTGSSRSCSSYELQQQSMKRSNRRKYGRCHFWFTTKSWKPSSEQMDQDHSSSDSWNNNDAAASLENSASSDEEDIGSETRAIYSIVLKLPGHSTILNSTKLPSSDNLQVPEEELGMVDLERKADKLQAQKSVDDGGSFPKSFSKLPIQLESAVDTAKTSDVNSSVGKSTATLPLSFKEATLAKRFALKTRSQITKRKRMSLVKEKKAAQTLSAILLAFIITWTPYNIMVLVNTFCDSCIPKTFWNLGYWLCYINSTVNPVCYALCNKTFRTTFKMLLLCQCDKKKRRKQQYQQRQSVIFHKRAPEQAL
T2 sequence (P07550 whole entry): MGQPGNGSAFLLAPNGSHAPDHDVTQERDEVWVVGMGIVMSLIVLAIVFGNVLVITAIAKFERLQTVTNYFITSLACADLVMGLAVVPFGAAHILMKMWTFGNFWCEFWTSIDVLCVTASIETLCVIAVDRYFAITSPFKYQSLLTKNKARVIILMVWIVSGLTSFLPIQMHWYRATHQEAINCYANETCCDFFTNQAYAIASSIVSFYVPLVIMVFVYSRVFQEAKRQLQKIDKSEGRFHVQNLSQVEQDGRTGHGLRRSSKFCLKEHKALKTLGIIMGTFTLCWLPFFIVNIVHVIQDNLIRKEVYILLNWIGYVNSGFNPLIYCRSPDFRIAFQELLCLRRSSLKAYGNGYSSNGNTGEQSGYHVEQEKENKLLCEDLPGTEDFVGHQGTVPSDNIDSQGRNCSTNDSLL

Turning to `O=C(Nc1ccccc1-c1cccs1)OC1CCN(CCCCCCCCCNC[C@H](O)c2ccc(O)c3[nH]c(=O)ccc23)CC1` [Example 1, (2-Thien-2-ylphenyl)carbamic Acid 1-{9-[(R)-2-Hydroxy-2-(8-hydroxy-2-oxo-1,2-dihydroquinolin-5-yl)ethylamino]nonyl}piperidin-4-yl Ester], the inhibition constant (Ki) (on hM3 muscarinic receptor; in assay [2]) was below 10 nM in each case. Moreover, the EC50 is below 20 nM in assay [1] and below 10 nM in assay [3].
On to `O=C(Nc1ccccc1-c1ccsc1)OC1CCN(CCCCCCCCCNC[C@H](O)c2ccc(O)c3[nH]c(=O)ccc23)CC1` [Example 2, (2-Thien-3-ylphenyl)carbamic Acid 1-{9-[(R)-2-Hydroxy-2-(8-hydroxy-2-oxo-1,2-dihydroquinolin-5-yl)ethylamino]nonyl}piperidin-4-yl Ester], for which the Ki (on hM3 muscarinic receptor; in assay [2]) was below 10 nM throughout. Moreover, the EC50 in assay [1] is below 20 nM; in assay [3], below 10 nM.
Turning to `O=C(Nc1c(F)cc(F)cc1-c1cccnc1)OC1CCN(CCCCCCCCCNC[C@H](O)c2ccc(O)c3[nH]c(=O)ccc23)CC1` [Example 3, (2,4-Difluoro-6-pyridin-3-ylphenyl)carbamic Acid 1-{9-[(R)-2-Hydroxy-2-(8-hydroxy-2-oxo-1,2-dihydroquinolin-5-yl)ethylamino]nonyl}piperidin-4-yl Ester], on hM3 muscarinic receptor, the inhibition constant Ki is below 150 nM. The values for the EC50 in assay [1] and in assay [3] were below 20 nM and below 10 nM, respectively.
